Measured values: article PMC11571207, “Stereorandomized Oncocins with Preserved Ribosome Binding and Antibacterial Activity” (Journal of Medicinal Chemistry, 2024)
Values after ≈ are worked out from the molar mass of the structure shown. Read-outs that look alike come from different tables or passages of the source. No end group written: not given here.

Assays:
P. aeruginosa ZEM9A = assay: microbe, parasite or virus in culture; settings: for MIC: Pseudomonas aeruginosa, ZEM9A; for MIC P. aeruginosa ZEM9A: supplement CSV
Method: (§1) Minimum inhibitory concentration assay
(§2) Antimicrobial activity was assayed against P. aeruginosa PAO1, K. pneumoniae NCTC418, E. coli W3110, A. baumannii ATCC 19606, methicillin-resistant S. aureus COL (MRSA), and for selected peptides on P. aeruginosa PA14 and the polymyxin-B-resistant derivative PA14 2P4, as well as the clinical isolates ZEM-1A and ZEM9A, K. pneumoniae OXA-48, S. aureus Newman, Enterobacter cloacae and Burkholderia cenocepacia. The minimal inhibitory concentration (MIC) was determined by using broth microdilution method. A colo ny of bacteria was picked and grown in Luria-Bertani (LB) medium overnight at 37°C. For E. coli BW25113 sbmA::kan the medium was supplemented with 25 mg/L of kanamycin. The next day, the culture was then regrown in LB medium to log phase (OD600 = 0.6 to 0.8), which lasted approximately 4 h, and diluted to an OD600 of 0.022 in the desired medium. Stock solutions of 1 mg/mL of the samples were prepared in sterilized milliQ water and diluted to the beginning concentration of 64 μg/mL in 300 μL Mueller Hinton (MH)-medium. The diluted samples were added to first well of 96-well microtiter plate (TPP, untreated, Faust Laborbedarf, AG, Schaffhausen) and diluted serially by ½. Finally, 4 μL of the bacterial suspension was inoculated into the sample solutions (150 μL/well) with a final inoculation of about 5∙10^5 CFU/mL. The plates were then incubated at 37°C for 15-18h. For each assay, sterility (broth only) and growth control (broth with bacterial inoculum, without antibiotics) were checked with two columns in the plate. The next day, 15 μL of 3-(4,5-dimethylthiazol-2-yl)-2,5-diphenyltetrazolium bromide (MTT) was added to each well of the plate, such a way that MIC was defined as the lowest concentration of the peptide that inhibited visible growth of the tested

P. aeruginosa PA14 = assay: microbe, parasite or virus in culture; settings: for MIC: Pseudomonas aeruginosa; for MIC P. aeruginosa PA14: supplement CSV
Method: as §1, §2

[1] = system: P. aeruginosa PA14 2P4 (pmrB); assay: microbe, parasite or virus in culture; settings: for MIC: Pseudomonas aeruginosa; for MIC P. aeruginosa PA14 2P4: supplement CSV
Method: as §1, §2

E. cloacae = assay: microbe, parasite or virus in culture; settings: for MIC: Enterobacter cloacae; for MIC E. cloacae: supplement CSV
Method: as §1, §2

P. aeruginosa ZEM-1A = assay: microbe, parasite or virus in culture; settings: for MIC: Pseudomonas aeruginosa, ZEM1A
Method: as §1, §2

K. pneumoniae OXA-48 = assay: microbe, parasite or virus in culture; settings: for MIC: Klebsiella pneumoniae; for MIC K. pneumoniae OXA-48: supplement CSV
Method: as §1, §2

[2] = system: P. aeruginosa PA14 4.13 (phoQ); settings: for MIC P. aeruginosa PA14 4.13: supplement CSV
human red blood cells = assay: Hemolysis assay, minimum hemolytic concentration
[3] = polymyxin B resistant strain, 12.5% MHB pH 7.4, 16–20 h at 37 °C
[4] = polymyxin B resistant strain, full MHB pH 7.4, 16–20 h at 37 °C

CC[C@H]1OC(=O)[C@H](C)[C@@H](O[C@H]2C[C@@](C)(OC)[C@@H](O)[C@H](C)O2)[C@H](C)[C@@H](O[C@@H]2O[C@H](C)C[C@H](N(C)C)[C@H]2O)[C@](C)(O)C[C@@H](C)CN(C)[C@H](C)[C@@H](O)[C@]1(C)O [AZM, azithromycin, reference compound]
MIC (P. aeruginosa ZEM9A; pH 7.4, read-out: MIC P. aeruginosa ZEM9A, 12.5% MHB, clinical isolate, 12.5% MHB pH 7.4, 16–20 h at 37 °C): 32 to 64 µg/mL (≈ 42.7 to 85.4 µM) | MIC (P. aeruginosa ZEM9A; pH 7.4, read-out: MIC P. aeruginosa ZEM9A, full MHB, clinical isolate, full MHB pH 7.4, 16–20 h at 37 °C): > 64 µg/mL | MIC (P. aeruginosa ZEM9A; pH 7.4, read-out: MIC P. aeruginosa ZEM9A, supplement CSV, 12.5% MH pH 7.4): 32 to 64 µg/mL (≈ 42.7 to 85.4 µM) | MIC (P. aeruginosa ZEM9A; pH 7.4, read-out: MIC P. aeruginosa ZEM9A, supplement CSV, full MH pH 7.4): > 64 µg/mL | MIC (P. aeruginosa PA14; PA14, pH 7.4, read-out: MIC P. aeruginosa PA14): 32 µg/mL (≈ 42.7 µM) | MIC (P. aeruginosa PA14; PA14, pH 7.4, read-out: MIC P. aeruginosa PA14, 12.5% MHB): 32 µg/mL (≈ 42.7 µM) | MIC (P. aeruginosa PA14; PA14, pH 7.4, read-out: MIC P. aeruginosa PA14, full MHB): 32 µg/mL (≈ 42.7 µM) | MIC P. aeruginosa PA14 (P. aeruginosa PA14; full MH pH 7.4): 32 µg/mL (≈ 42.7 µM) | MIC ([1]; PA14, pH 7.4, read-out: MIC P. aeruginosa PA14 2P4 (pmrB), 12.5% MHB, polymyxin B resistant strain, 12.5% MHB pH 7.4, 16–20 h at 37 °C): 16 µg/mL (≈ 21.4 µM) | MIC ([1]; PA14, pH 7.4, read-out: MIC P. aeruginosa PA14 2P4 (pmrB), full MHB, polymyxin B resistant strain, full MHB pH 7.4, 16–20 h at 37 °C): 32 to 64 µg/mL (≈ 42.7 to 85.4 µM) | MIC ([1]; PA14, pH 7.4, read-out: MIC P. aeruginosa PA14 2P4, supplement CSV, 12.5% MH pH 7.4): 16 µg/mL (≈ 21.4 µM) | MIC ([1]; PA14, pH 7.4, read-out: MIC P. aeruginosa PA14 2P4, supplement CSV, full MH pH 7.4): 32 to 64 µg/mL (≈ 42.7 to 85.4 µM) | MIC (E. cloacae; pH 7.4, read-out: MIC E. cloacae, 12.5% MHB, 12.5% MHB pH 7.4, 16–20 h at 37 °C): 8 µg/mL (≈ 10.7 µM) | MIC (E. cloacae; pH 7.4, read-out: MIC E. cloacae, full MHB, full MHB pH 7.4, 16–20 h at 37 °C): 16 µg/mL (≈ 21.4 µM) | MIC (E. cloacae; pH 7.4, read-out: MIC E. cloacae, supplement CSV, 12.5% MH pH 7.4): 8 µg/mL (≈ 10.7 µM) | MIC (E. cloacae; pH 7.4, read-out: MIC E. cloacae, supplement CSV, full MH pH 7.4): 16 µg/mL (≈ 21.4 µM) | MIC (P. aeruginosa ZEM-1A; pH 7.4, read-out: MIC P. aeruginosa ZEM-1A, 12.5% MHB, clinical isolate, 12.5% MHB pH 7.4, 16–20 h at 37 °C, cells marked c: single measurement (in duplicates)): < 0.5 µg/mL | MIC (P. aeruginosa ZEM-1A; pH 7.4, read-out: MIC P. aeruginosa ZEM-1A, full MHB, clinical isolate, full MHB pH 7.4, 16–20 h at 37 °C, cells marked c: single measurement (in duplicates)): 64 µg/mL (≈ 85.4 µM) | MIC (P. aeruginosa ZEM-1A; pH 7.4, read-out: MIC P. aeruginosa ZEM-1A, supplement CSV, 12.5% MH pH 7.4): < 0.5 µg/mL | MIC (P. aeruginosa ZEM-1A; pH 7.4, read-out: MIC P. aeruginosa ZEM-1A, supplement CSV, full MH pH 7.4): 64 µg/mL (≈ 85.4 µM) | MIC (K. pneumoniae OXA-48; OXA48, pH 7.4, read-out: MIC K. pneumoniae OXA-48, 12.5% MHB, carbapenem-resistant, 12.5% MHB pH 7.4, 16–20 h at 37 °C): 8 µg/mL (≈ 10.7 µM) | MIC (K. pneumoniae OXA-48; OXA48, pH 7.4, read-out: MIC K. pneumoniae OXA-48, full MHB, carbapenem-resistant, full MHB pH 7.4, 16–20 h at 37 °C): 8 to 16 µg/mL (≈ 10.7 to 21.4 µM) | MIC (K. pneumoniae OXA-48; OXA48, pH 7.4, read-out: MIC K. pneumoniae OXA-48, supplement CSV, 12.5% MH pH 7.4): 8 µg/mL (≈ 10.7 µM) | MIC (K. pneumoniae OXA-48; OXA48, pH 7.4, read-out: MIC K. pneumoniae OXA-48, supplement CSV, full MH pH 7.4): 8 to 16 µg/mL (≈ 10.7 to 21.4 µM)

VDKPPYLPRPRPPRRIYNR [sr8Cterm-Onc] (VDKPPYLPRPRPPRRIYNR-NH2; also: residues 12-19 stereorandomized (1:1 L/D mixture))
MIC P. aeruginosa PA14 4.13 (phoQ), 12.5% MHB [2, 3]: 8 µg/mL | MIC P. aeruginosa PA14 4.13 (phoQ), full MHB [2, 4]: 64 µg/mL | MIC P. aeruginosa PA14 4.13 ([2]; 12.5% MH pH 7.4): 8 µg/mL | MIC P. aeruginosa PA14 4.13 ([2]; full MH pH 7.4): 64 µg/mL | MIC P. aeruginosa ZEM9A, 12.5% MHB (P. aeruginosa ZEM9A; clinical isolate, 12.5% MHB pH 7.4, 16–20 h at 37 °C): 8 µg/mL | MIC P. aeruginosa ZEM9A, full MHB (P. aeruginosa ZEM9A; clinical isolate, full MHB pH 7.4, 16–20 h at 37 °C): > 64 µg/mL | MIC P. aeruginosa ZEM9A (P. aeruginosa ZEM9A; 12.5% MH pH 7.4): 8 µg/mL | MIC P. aeruginosa ZEM9A (P. aeruginosa ZEM9A; full MH pH 7.4): >64 µg/mL | MIC P. aeruginosa PA14, 12.5% MHB (P. aeruginosa PA14; 12.5% MHB pH 7.4, 16–20 h at 37 °C, two different duplicate MIC determinations): 8 µg/mL | MIC P. aeruginosa PA14, full MHB (P. aeruginosa PA14; full MHB pH 7.4, 16–20 h at 37 °C, two different duplicate MIC determinations): > 64 µg/mL | MIC P. aeruginosa PA14 (P. aeruginosa PA14; 12.5% MH pH 7.4): 8 µg/mL | MIC P. aeruginosa PA14 (P. aeruginosa PA14; full MH pH 7.4): >64 µg/mL | MIC P. aeruginosa PA14 2P4 (pmrB), 12.5% MHB [1, 3]: 2 µg/mL | MIC P. aeruginosa PA14 2P4 (pmrB), full MHB [1, 4]: > 64 µg/mL | MIC P. aeruginosa PA14 2P4 ([1]; 12.5% MH pH 7.4): 2 µg/mL | MIC P. aeruginosa PA14 2P4 ([1]; full MH pH 7.4): >64 µg/mL | MIC E. cloacae, 12.5% MHB (E. cloacae; 12.5% MHB pH 7.4, 16–20 h at 37 °C): 0.5 µg/mL | MIC E. cloacae, full MHB (E. cloacae; full MHB pH 7.4, 16–20 h at 37 °C): > 64 µg/mL | MIC E. cloacae (E. cloacae; 12.5% MH pH 7.4): 0.5 µg/mL | MIC E. cloacae (E. cloacae; full MH pH 7.4): >64 µg/mL | MIC P. aeruginosa ZEM-1A, 12.5% MHB (P. aeruginosa ZEM-1A; clinical isolate, 12.5% MHB pH 7.4, 16–20 h at 37 °C, cells marked c: single measurement (in duplicates)): 4 to 8 µg/mL | MIC P. aeruginosa ZEM-1A, full MHB (P. aeruginosa ZEM-1A; clinical isolate, full MHB pH 7.4, 16–20 h at 37 °C, cells marked c: single measurement (in duplicates)): 64 µg/mL | MIC P. aeruginosa ZEM-1A (P. aeruginosa ZEM-1A; supplement CSV, 12.5% MH pH 7.4): 4 to 8 µg/mL | MIC K. pneumoniae OXA-48, 12.5% MHB (K. pneumoniae OXA-48; carbapenem-resistant, 12.5% MHB pH 7.4, 16–20 h at 37 °C): 16 µg/mL | MIC K. pneumoniae OXA-48, full MHB (K. pneumoniae OXA-48; carbapenem-resistant, full MHB pH 7.4, 16–20 h at 37 °C): 32 µg/mL | MIC K. pneumoniae OXA-48 (K. pneumoniae OXA-48; 12.5% MH pH 7.4): 16 µg/mL | MIC K. pneumoniae OXA-48 (K. pneumoniae OXA-48; full MH pH 7.4): 32 µg/mL | Haemolysis on hRBC, MHC (human red blood cells; 2.5% human red blood cells (final) in 10 mM phosphate, 150 mM NaCl, pH 7.4, 25 °C, 4 h, visual inspection): >1000 µg/mL | MHC human red blood cells (human red blood cells; supplement CSV): >1000 µg/mL
